Test results taken from patent US7326542B2, “Compositions and methods for regulating bacterial pathogenesis” (priority 1998, dated 2008).
Where two headings read alike, the source gives them in different places.

What was measured:
[1] = system: V. harveyi reporter strain BB170 (Sensor 1-, Sensor 2+); type: cell-based, Vibrio harveyi
Protocol: Cell-free culture fluids from E. coli, S. typhimurium and V. harveyi strains were tested for the presence of signaling substances that could induce luminescence in the V. harveyi reporter strain BB170 or BB886. […] The microtiter dishes were shaken in a rotary shaker at 175 rpm at 30° C.
The cell density was measured by diluting the same aliquots of cells used for measuring luminescence, spreading the dilutions onto solid LM medium, incubating the plates overnight at 30° C., and counting the resulting colonies the following day. […] Cell-free culture supernatants from V. harveyi or S. typhimurium strains were added to a final concentration of 10% (v/v) at the time of the first measurement. In control experiments, 10% (v/v) of AB medium, LB medium or LB medium containing 0.5% glucose was added instead of cell-free culture fluids.

[2] = system: V. harveyi luxN, luxS double mutant reporter strain; test: V. harveyi luxN, luxS double mutant reporter strain luminescence assay; type: cell-based, Vibrio harveyi; conditions: AI-1 from MM30 and AI-2 from BB152 culture fluids
Protocol: Verification that the luxN, luxS Double Mutant Responds to AI-2. […] This was verified in a luminescence assay for response to V. harveyi AI-1 and AI-2. V. harveyi strain MM30 (luxS::Tn5) which is phenotypically AI-1^+, AI-2^−, and V. harveyi strain BB152 (luxM::Tn5) which is phenotypically AI-1^−, AI-2^+ were used as the sources of AI-1 and AI-2 respectively. The AI-1 and AI-2 present in culture fluids of these strains was tested for stimulation of light production of the V. harveyi luxN, luxS double mutant reporter strain. In this assay, autoinducer preparations from MM30, BB152 or sterile medium controls were added to the wells of microtiter plates, followed by the addition of the V. harveyi reporter strain. The resulting light production was monitored using a liquid scintillation counter in the chemiluminescence mode. Maximal stimulation of light production in the V. harveyi luxN, luxS reporter strain was compared to that produced by the Sensor 1^+, Sensor 2^− V. harveyi strain BB886 and the Sensor 1^−, Sensor 2^+ V. harveyi strain BB170. These two V. harveyi strains are routinely used in this assay as reporters of AI-1 and AI-2 activity respectively.

[3] = system: V. harveyi reporter strain BB886 (Sensor 1+, Sensor 2-); test: V. harveyi BB886 luminescence bioassay (AI-1 / Signaling System 1); type: cell-based, Vibrio harveyi; conditions: non self-stimulating sensor-1+, sensor-2- mutant (BB886)
Protocol: Assay for production of signaling compounds. Cell-free culture fluids from E. coli, S. typhimurium and V. harveyi strains were tested for the presence of signaling substances that could induce luminescence in the V. harveyi reporter strain BB170 or BB886. In the assays, 10 1 of cell-free culture fluids from E. coli AB1157, E. coli DH5, and S. typhimurium LT2 strains grown and harvested as described above were added to 96-well microtiter dishes. The V. harveyi reporter strain BB170 or BB886 was grown for 16 h at 30° C. with aeration in AB medium, diluted 1:5000 into fresh AB medium, and 90 1 of the diluted cells were added to the wells containing the E. coli and S. typhimurium cell-free culture fluids. Positive control wells contained 10 1 of cell-free culture fluid from strain V. harveyi BB152 (Autoinducer-1^−, Autoinducer-2^+) or V. harveyi BB 120 (Autoinducer-1^+, Autoinducer-2^+). Negative control wells contained 10 1 of sterile growth medium. […] Every hour, light production was measured using a Wallac Model 1450 Microbeta Plus liquid scintillation counter in the chemiluminescence mode. The V. harveyi cell density was measured by diluting the same aliquots of cells used for measuring luminescence, spreading the dilutions onto solid LM medium (Bassler et al., 1993, supra), incubating the plates overnight at 30C., and counting the resulting colonies the following day. […]

[4] = Stability of the signaling activity (acid, base, heat, storage); type: physicochemical
[5] = system: rck::MudJ fusion in S. typhimurium (sdiA+ and sdiA-); test: SdiA regulated rck::MudJ fusion, galactosidase; type: cell-based; conditions: addition of AI-2 from E. coli or S. typhimurium, 2 h
Protocol: For ftsQ regulation in E. coli, the plasmids pMS207 and pMS209 were transformed into E. coli strain MC4100 (Silhavy et al., 1984, supra), and the transformants were grown overnight in LB containing 100 mg/L ampicillin at 30° C. with aeration. For rck regulation, S. typhimurium strains BA1105 (rck::MudJ) and BA1305 (rck::MudJ sdiA) were grown overnight in LB containing 100 mg/L kanamycin at 30° C. with aeration. The overnight cultures were diluted 20-fold into fresh medium and grown for an additional 4.5 h. At this time, each culture was divided into five identical aliquots and 10% (v/v) of one of the following was added to each aliquot: LB, 0.4 M NaCl, […] osmotic shock fluids from S. typhimurium LT2, E. coli 0157 or E. coli strain DH5 (negative control). The osmotic shock fluids were prepared as described above, following pre-growth of the S. typhimurium LT2 and E. coli in LB containing 0.5% glucose for 6 h. The cell suspensions were incubated at 30° C. for 2 h, after which standard-galactosidase reactions were performed on the samples (Miller, A Short Course in Bacterial Genetics, Cold Spring Harbor Laboratory Press, 1992).

[6] = system: ftsQ1p2p-lacZ fusion in E. coli MC4100/pMS207; test: SdiA regulated ftsQ1p2p-lacZ reporter, galactosidase; type: cell-based; conditions: 10% (v/v) 0.4 M NaCl osmotic shock fluids containing AI-2 activity, 2 h
Description: Analysis of the effect of autoinducer on SdiA regulated gene expression. A sequence that includes the ftsQ1p and ftsQ2p promoters (Wang et al., 1991, supra) was amplified from E. coli MG1655 chromosomal DNA using the following primers: ftsQ1p, 5′-[…]-3′ (SEQ ID NO: 19); ftsQ2p, 5′-[…]-3′ (SEQ ID NO: 20). The amplified product contained both the ftsQ promoters and the first 14 codons of the ftsQ gene flanked by BamHI and Bg1II sites. The ftsQ1p2p PCR product was cloned into the BamHI site of vector pMLB 1034 (Silhavy et al., Experiments with Gene Fusions, Cold Spring Harbor Press, 1984) to generate a lacZ fusion that contained the promoters, ribosome binding site, and initiation codon of ftsQ. A correctly oriented clone, pMS207, and a clone containing the ftsQ1p2p insert in the opposite orientation, pMS209, were chosen for further analysis. Both inserts were sequenced to ensure that no errors were introduced during the PCR reaction.
For ftsQ regulation in E. coli, the plasmids pMS207 and pMS209 were transformed into E. coli strain MC4100 (Silhavy et al., 1984, supra), and the transformants were grown overnight in LB containing 100 mg/L ampicillin at 30° C. with aeration. For rck regulation, S. typhimurium strains BA1105 (rck::MudJ) and BA1305 (rck::MudJ sdiA) were grown overnight in LB containing 100 mg/L kanamycin at 30° C. with aeration. […]

O=C(O)CCC(=O)C(=O)O [-ketoglutarate]
activity of candidates for the signal in inducing luminescence [1]: None of these compounds has activity

C[C@@H](O)CC(=O)N[C@H]1CCOC1=O [AI-1, N-(3-hydroxybutanoyl)-L-homoserine lactone, reference compound]
light production in response to exogenous autoinducer [2]: not
lowest concentration the assay was sensitive to [3]: 100 nM

CC(=O)C(=O)C(O)CO (stereo not drawn) [AI-2, 4,5-dihydroxy-2,3-pentanedione]
acid and base stability of the activity [4]: acid stable and base labile
heat resistance of the activity [4]: heat resistant to about 80 but not 100 °C
acid and base stability of the activity ([4]; listed as signaling activity): acid stabile and base labile
heat resistance of the activity ([4]; listed as signaling activity): heat resistant to 80 but not 100 °C
acid and base stability of the activity ([4]; listed as signaling compound): acid stable and base labile
heat resistance of the activity ([4]; listed as signaling compound): heat resistant to 80 °C but not 100 °C
change in galactosidase production of rck::MudJ [5]: No change
light production in response to exogenous autoinducer [2]: stimulated to produce light
change of galactosidase activity of ftsQ1p2p-lacZ fusion [6]: did not change
stimulation in light production by AI-2 produced in vitro ([1]; dialyzed LuxS- cell extract + SAM + LuxS protein, 60 min, material with MW<5000): over 500 fold

CC(=O)O [acetate]
activity of candidates for the signal in inducing luminescence [1]: None of these compounds has activity

N[C@H]1CCOC1=O [homoserine lactone]
activity of candidates for the signal in inducing luminescence [1]: None of these compounds has activity
